In patent US7605272B2, “IGF-1R inhibitor” (Kyowa Hakko Kirin Co., Ltd., priority 2005, dated 2009):
Where a name gives a salt, the structure may show the parent alone.

Experiments:
NCI-H929 = assay: Cytostatic activity on human multiple myeloma cell line NCI-H929 (WST-1); assay type: cell-based; conditions: 72 hours; for inhibition at 10 µM / inhibition at 1 µM: Homo sapiens, NCI-H929, 72 h; for inhibition at 10 µM: 10 μmol/L, read-out: cytostatic rate (%) H929 (10 μmol/L); for inhibition at 1 µM: read-out: cytostatic rate (%) H929 (1 μmol/L)
Outline: (§1)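 Cytostatic rate is 100 minus % growth relative to DMSO-only wells (100%) and blank wells (0%), read by WST-1 absorbance at 450/690 nm after 2 h. Compound at 1 or 10 μmol/L final was applied for 72 h at 37 °C to cells seeded 24 h earlier.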

KMS-11 = assay: Cytostatic activity on human multiple myeloma cell line KMS-11 (WST-1); assay type: cell-based; conditions: 72 hours; for inhibition at 10 µM / inhibition at 1 µM: Homo sapiens, KMS-11, 72 h; for inhibition at 10 µM: 10 μmol/L, read-out: cytostatic rate (%) KMS-11 (10 μmol/L); for inhibition at 1 µM: read-out: cytostatic rate (%) KMS-11 (1 μmol/L)
Outline: as §1

IGF-1R = target: T1, IGF-1R (Homo sapiens, UniProt P08069); assay: IGF-1R inhibitory activity (kinase reaction, time-resolved fluoroimmunoassay); assay type: biochemical; conditions: IGF-1R active recombinant enzyme, test compound 10 μmol/L
T1 construct: purchased Upstate Co. 14-465
Outline: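 Compounds were tested at a single 10 μmol/L concentration. Each was incubated with recombinant IGF-1R (200 μg/L), 10 mmol/L ATP, MgCl2/MnCl2 and Na3VO4 (pH 7.5) on immobilized poly(Glu-Tyr) peptide for 30 min at 24° C. Eu-anti-phosphotyrosine time-resolved fluorescence (340/615 nm) gave relative activity against no-compound and no-enzyme wells, reported as % inhibition.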

T1 sequence (P08069 959-1367 limits assumed): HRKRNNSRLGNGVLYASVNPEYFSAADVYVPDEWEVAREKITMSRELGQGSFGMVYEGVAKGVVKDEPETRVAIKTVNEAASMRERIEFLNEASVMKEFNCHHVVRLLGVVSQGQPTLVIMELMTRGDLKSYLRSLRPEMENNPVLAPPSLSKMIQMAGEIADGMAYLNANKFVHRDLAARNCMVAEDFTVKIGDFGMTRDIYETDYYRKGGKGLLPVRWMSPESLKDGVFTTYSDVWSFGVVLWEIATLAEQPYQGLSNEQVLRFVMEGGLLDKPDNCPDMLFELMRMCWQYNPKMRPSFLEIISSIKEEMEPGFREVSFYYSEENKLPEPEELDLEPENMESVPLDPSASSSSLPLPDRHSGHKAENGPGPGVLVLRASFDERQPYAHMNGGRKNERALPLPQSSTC

Compound | inhibition at 10 µM (IGF-1R) [%] | inhibition at 10 µM (NCI-H929) [%] | inhibition at 10 µM (KMS-11) [%] | inhibition at 1 µM (NCI-H929; 1 μmol/L) [%] | inhibition at 1 µM (KMS-11; 1 μmol/L) [%] | cytostatic rate (%) H929 (1 μmol/L) (NCI-H929; 1 μmol/L) [%] | cytostatic rate (%) KMS-11 (1 μmol/L) (KMS-11; 1 μmol/L) [%] | inhibitory activity (%) at 10 μmol/L (IGF-1R) [%]
NC(=S)Nc1ccccc1/C=C/c1n[nH]c2ccccc12 [Compound 161, (E)-N-{2-[2-(1H-indazol-3-yl)vinyl]phenyl}thiourea] | 95.9 | 113 | 92.8 |  |  |  |  | 
Cc1ncsc1C(=O)Nc1ccccc1/C=C/c1n[nH]c2ccccc12 [Compound 174, (E)-N-{2-[2-(1H-indazol-3-yl)vinyl]phenyl}-4-methylthiazole-5-carboxamide] | 103 | 109 | 82.6 |  |  |  |  | 
Nc1ccc2c(c1)C(=O)N(c1ccccc1/C=C/c1n[nH]c3ccccc13)C2=O [Compound 193, (E)-5-amino-2-{2-[2-(1H-indazol-3-yl)vinyl]phenyl}isoindole-1,3-dione] | 100 | 124 | 167 |  |  |  |  | 
COC(=O)c1c[nH]c(-c2ccccc2/C=C/c2n[nH]c3ccccc23)n1 [Compound 195, (E)-2-{2-[2-(1H-indazol-3-yl)vinyl]phenyl}-3H-imidazole-4-carboxylic acid methyl ester] | 100 | 111 | 97.7 |  |  |  |  | 
O=C1c2ccccc2CN1c1ccccc1/C=C/c1n[nH]c2ccccc12 [Compound 213, (E)-2-{2-[2-(1H-indazol-3-yl)vinyl]phenyl}-2,3-dihydroisoindole-1-one] | 99 | 127 | 121 |  |  |  |  | 
Nc1cccc2c1CN(c1ccccc1/C=C/c1n[nH]c3ccccc13)C2=O [Compound 216, (E)-4-amino-2-{2-[2-(1H-indazol-3-yl)vinyl]phenyl}-2,3-dihydroisoindole-1-one] | 96.5 | 109 | 90.9 |  |  |  |  | 
Cc1ccsc1C(=O)Nc1cc(C(=O)N2CCN(C=O)CC2)ccc1/C=C/c1n[nH]c2ccccc12 [Compound 218, (E)-N-{2-[2-(1H-indazol-3-yl)vinyl]-5-(4-formylpiperazin-1-ylcarbonyl)phenyl}-3-methylthiophene-2-carboxamide hydrochloride] | 98.6 |  |  | 112 | 106 |  |  | 
Cc1ccsc1C(=O)Nc1cc(C(=O)N2CCC(O)CC2)ccc1/C=C/c1n[nH]c2ccccc12 [Compound 219, (E)-N-{2-[2-(1H-indazol-3-yl)vinyl]-5-(4-hydroxypiperidin-1-ylcarbonyl)phenyl}-3-methylthiophene-2-carboxamide hydrochloride] | 99.4 |  |  | 111 | 108 |  |  | 
Cc1ccsc1C(=O)Nc1cc(C(=O)N2CC[C@@H](O)C2)ccc1/C=C/c1n[nH]c2ccccc12 [Compound 220, (E)-(R)—N-{2-[2-(1H-indazol-3-yl)vinyl]-5-(3-hydroxypyrrolidin-1-ylcarbonyl)phenyl}-3-methylthiophene-2-carboxamide hydrochloride] | 99.3 |  |  | 110 | 97.9 |  |  | 
Cc1ccsc1C(=O)Nc1cc(C(=O)N2C[C@@H](C)O[C@@H](C)C2)ccc1/C=C/c1n[nH]c2ccccc12 [Compound 223, (E)-N-{2-[2-(1H-indazol-3-yl)vinyl]-5-(cis-2,6-dimethylmorpholin-4-ylcarbonyl)phenyl}-3-methylthiophene-2-carboxamide hydrochloride] | 101 |  |  | 119 | 120 |  |  | 
Cc1ccsc1C(=O)Nc1cc(CN2CCOCC2)ccc1/C=C/c1n[nH]c2ccccc12 [Compound 224, (E)-N-{2-[2-(1H-indazol-3-yl)vinyl]-5-(morpholin-4-ylmethyl)phenyl}-3-methylthiophene-2-carboxamide hydrochloride] | 100 |  |  | 119 | 119 |  |  | 
Cc1ccsc1C(=O)Nc1ccc(N2CCC(S(C)(=O)=O)CC2)cc1/C=C/c1n[nH]c2ccccc12 [Compound 227, (E)-N-{2-[2-(1H-indazol-3-yl)vinyl]-4-(4-methanesulfonylpiperidin-1-yl)phenyl}-3-methylthiophene-2-carboxamide hydrochloride] | 98.9 |  |  | 113 | 52.9 |  |  | 
Cc1ccsc1C(=O)Nc1ccc(N2CCN(C)CC2)cc1/C=C/c1n[nH]c2ccccc12 [Compound 228, (E)-N-{2-[2-(1H-indazol-3-yl)vinyl]-4-(4-methylpiperazin-1-yl)phenyl}-3-methylthiophene-2-carboxamide] | 100 |  |  | 114 | 58 |  |  | 
Cc1ccsc1C(=O)Nc1cc(C(=O)NCCN(C)C)ccc1/C=C/c1n[nH]c2ccccc12 [Compound 229, (E)-N-{5-[2-(dimethylamino)ethylcarbamoyl]-2-[2-(1H-indazol-3-yl)vinyl]phenyl}-3-methylthiophene-2-carboxamide hydrochloride] | 99.3 |  |  | 121 | 66.8 |  |  | 
CCN(CC)CCNC(=O)c1ccc(/C=C/c2n[nH]c3ccccc23)c(NC(=O)c2sccc2C)c1 [Compound 230, (E)-N-{5-(2-diethylaminoethylcarbamoyl)-2-[2-(1H-indazol-3-yl)vinyl]phenyl}-3-methylthiophene-2-carboxamide hydrochloride] | 98.9 |  |  | 124 | 93.8 |  |  | 
Cc1ccsc1C(=O)Nc1cc(C(=O)N2CCN(C(=O)[C@@H]3CCCN3)CC2)ccc1/C=C/c1n[nH]c2ccccc12 [Compound 231, (S)-(E)-N-{2-[2-(1H-indazol-3-yl)vinyl]-5-[4-(pyrrolidin-2-ylcarbonyl)piperazin-1-ylcarbonyl]phenyl}-3-methylthiophene-2-carboxamide] | 99.7 |  |  | 122 | 80.2 |  |  | 
Cl.Cn1cccc1C(=O)Nc1cc(N2CCOCC2)ccc1/C=C/c1n[nH]c2ccccc12 [Compound 246, (E)-{2-[2-(1H-indazol-3-yl)vinyl]-5-(morpholin-4-yl)phenyl}-1-methyl-1H-pyrrole-2-carboxamide monohydrochloride] |  |  |  |  |  | 126.7 | 128.9 | 100.2

Continued, in another order:

inhibition at 10 µM (IGF-1R) [%] | Compound | inhibition at 10 µM (NCI-H929) [%] | inhibition at 10 µM (KMS-11) [%] | inhibition at 1 µM (NCI-H929; 1 μmol/L) [%] | inhibition at 1 µM (KMS-11; 1 μmol/L) [%] | cytostatic rate (%) H929 (1 μmol/L) (NCI-H929; 1 μmol/L) [%] | cytostatic rate (%) KMS-11 (1 μmol/L) (KMS-11; 1 μmol/L) [%] | inhibitory activity (%) at 10 μmol/L (IGF-1R) [%]
101 | Cc1ccsc1C(=O)Nc1cc(CN2CCN(S(C)(=O)=O)CC2)ccc1/C=C/c1n[nH]c2ccccc12 [Compound 232, (E)-N-{2-[2-(1H-indazol-3-yl)vinyl]-5-(4-methanesulfonylpiperazin-1-ylmethyl)phenyl}-3-methylthiophene-2-carboxamide] |  |  | 124 | 116 |  |  | 
102 | Cc1ccsc1C(=O)Nc1cc(CN2CCN(C)CC2)ccc1/C=C/c1n[nH]c2ccccc12 [Compound 234, (E)-N-{2-[2-(1H-indazol-3-yl)vinyl]-5-(4-methylpiperazin-1-ylmethyl)phenyl}-3-methylthiophene-2-carboxamide] |  |  | 118 | 111 |  |  | 
98.3 | Cc1ccsc1C(=O)Nc1cc(CN2CCC(S(C)(=O)=O)CC2)ccc1/C=C/c1n[nH]c2ccccc12 [Compound 235, (E)-N-{2-[2-(1H-indazol-3-yl)vinyl]-5-(4-methanesulfonylpiperidin-1-ylmethyl)phenyl}-3-methylthiophene-2-carboxamide] |  |  | 115 | 109 |  |  | 
99.5 | CCN(CC)CCNCc1ccc(/C=C/c2n[nH]c3ccccc23)c(NC(=O)c2sccc2C)c1 [Compound 236, (E)-N-{5-[(2-diethylaminoethylamino)methyl]-2-[2-(1H-indazol-3-yl)vinyl]phenyl}-3-methylthiophene-2-carboxamide] |  |  | 123 | 139 |  |  | 
100 | CCN(CC)CCOc1ccc(NC(=O)c2sccc2C)c(/C=C/c2n[nH]c3ccccc23)c1 [Compound 237, (E)-N-{2-[2-(1H-indazol-3-yl)vinyl]-4-(2-diethylaminoethoxy)phenyl}-3-methylthiophene-2-carboxamide] |  |  | 120 | 144 |  |  | 
97.1 | COCCN(CCN1CCOCC1)c1ccc(NC(=O)c2sccc2C)c(/C=C/c2n[nH]c3ccccc23)c1 [Compound 238, (E)-N-{2-[2-(1H-indazol-3-yl)vinyl]-4-[N-(2-methoxyethyl)-2-(morpholin-4-yl)ethylamino]phenyl}-3-methylthiophene-2-carboxamide] |  |  | 126 | 132 |  |  | 
103 | Cc1ccsc1C(=O)Nc1cc(C(=O)NC2CCNCC2)ccc1/C=C/c1n[nH]c2ccccc12 [Compound 240, (E)-N-{2-[2-(1H-indazol-3-yl)vinyl]-5-(piperidin-4-ylcarbamoyl)phenyl}-3-methylthiophene-2-carboxamide hydrochloride] |  |  | 105 | 67 |  |  | 
102 | COCC(=O)N1CCN(Cc2ccc(/C=C/c3n[nH]c4ccccc34)c(NC(=O)c3sccc3C)c2)CC1 [Compound 244, (E)-N-{2-[2-(1H-indazol-3-yl)vinyl]-5-[4-(2-methoxyacetyl)piperazin-1-ylmethyl]phenyl}-3-methylthiophene-2-carboxamide] |  |  | 127 | 124 |  |  | 
